Laboratory results taken from patent US8933224B2, “Triazine derivatives” (Pfizer Inc., priority 2013, dated 2015).

Columns and labels:
[1] = target: rat PDE10 enzyme (Rattus norvegicus (Rat), UniProt Q9QYJ6); assay: PDE10 scintillation proximity assay (SPA), inhibition of rat PDE10 enzyme activity; format: biochemical; details: geometric mean of 2-4 determinations unless otherwise indicated (b: ≧5 determinations; c: single determination)
How it was run: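 SPA with fixed recombinant PDE10 (Sf21-expressed, Ni-NTA and Mono Q purified) converting ~20% of 20 nM ³H-cAMP in 50 mM TRIS pH 7.5, 1.3 mM MgCl2, 0.01% Brij, across an inhibitor range.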

[2] = target: human recombinant PDE10 enzyme (PDE10A) (Homo sapiens, UniProt Q9Y233); assay: PDE10 scintillation proximity assay (SPA), inhibition of human recombinant PDE10 enzyme activity; format: biochemical; details: geometric mean of 2-4 determinations unless otherwise indicated (b: ≧5 determinations; c: single determination)
How it was run: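 His6-tagged human PDE10A (aa 21–797) was expressed in insect cells and purified by Ni-NTA and size exclusion. The enzyme, at a level converting about 20% of 20 nM ^3H-cAMP, was incubated 30 min at 25°C in 50 mM Tris pH 7.5, 1.3 mM MgCl2, 0.01% Brij with inhibitors. The reaction was stopped with yttrium silicate SPA beads, read by scintillation, and IC50 determined.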

Sequence of rat PDE10 enzyme (Q9QYJ6 24-794): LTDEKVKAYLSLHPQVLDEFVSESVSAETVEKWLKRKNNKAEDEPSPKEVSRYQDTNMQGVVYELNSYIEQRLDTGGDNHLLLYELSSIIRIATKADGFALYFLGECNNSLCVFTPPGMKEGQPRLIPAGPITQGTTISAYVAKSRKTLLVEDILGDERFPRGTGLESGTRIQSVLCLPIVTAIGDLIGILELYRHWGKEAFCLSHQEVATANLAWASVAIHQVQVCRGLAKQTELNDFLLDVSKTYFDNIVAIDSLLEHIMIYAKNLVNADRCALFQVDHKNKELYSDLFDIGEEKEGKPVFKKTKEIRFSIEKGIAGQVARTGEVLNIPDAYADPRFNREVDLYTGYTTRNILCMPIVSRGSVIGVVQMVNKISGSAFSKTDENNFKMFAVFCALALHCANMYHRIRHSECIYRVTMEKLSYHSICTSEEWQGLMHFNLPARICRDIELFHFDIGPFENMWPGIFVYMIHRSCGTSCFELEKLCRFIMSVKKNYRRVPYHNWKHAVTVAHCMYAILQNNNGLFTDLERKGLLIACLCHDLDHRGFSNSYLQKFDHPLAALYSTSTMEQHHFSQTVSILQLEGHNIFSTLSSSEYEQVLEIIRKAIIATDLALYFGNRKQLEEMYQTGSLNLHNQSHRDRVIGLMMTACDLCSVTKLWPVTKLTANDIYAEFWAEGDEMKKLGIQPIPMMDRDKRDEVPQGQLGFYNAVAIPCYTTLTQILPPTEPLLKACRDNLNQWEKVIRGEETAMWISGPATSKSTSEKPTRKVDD

SMILES	IC50 [1] [nM]	IC50 [2] [nM]
Cc1nc(-c2ccccc2F)c2c(N3CCc4ccc(C(F)(F)F)nc4C3)ncnn12 [Example 159, 7-[5-(2-fluorophenyl)-7-methylimidazo[5,1-f][1,2,4]triazin-4-yl]-2-(trifluoromethyl)-5,6,7,8-tetrahydro-1,7-naphthyridine]	9.7	21.2
Cc1nc(-c2ccccc2F)c2c(N3CCc4c(c(C(F)(F)F)nn4C)C3)ncnn12 [Example 118, 5-(2-fluorophenyl)-7-methyl-4-[1-methyl-3-(trifluoromethyl)-1,4,6,7-tetrahydro-5H-pyrazolo[4,3-c]pyridin-5-yl]imidazo[5,1-f][1,2,4]triazine]	0.943	1.28
Cc1nc([C@@H]2CCOC2)c2c(N3CCc4ncccc4C3)ncnn12 [Example 47, 6-{7-methyl-5-[(3S)-tetrahydrofuran-3-yl]imidazo[5,1-f][1,2,4]triazin-4-yl}-5,6,7,8-tetrahydro-1,6-naphthyridine]	0.758	1.42
COc1cc2c(cn1)CN(c1ncnn3c(C)nc(-c4ccccc4F)c13)CC2 [Example 71, 2-[5-(2-fluorophenyl)-7-methylimidazo[5,1-f][1,2,4]triazin-4-yl]-6-methoxy-1,2,3,4-tetrahydro-2,7-naphthyridine]	3.41	5.77
COc1ccc2c(n1)CCN(c1ncnn3c(C)nc([C@@H]4CCOC4)c13)C2 [Example 27, 2-methoxy-6-{7-methyl-5-[(3S)-tetrahydrofuran-3-yl]imidazo[5,1-f][1,2,4]triazin-4-yl}-5,6,7,8-tetrahydro-1,6-naphthyridine]	0.617	0.891
COc1cc2c(cn1)CN(c1ncnn3c(C)nc([C@@H]4CCOC4)c13)CC2 [Example 70, 6-methoxy-2-{7-methyl-5-[(3S)-tetrahydrofuran-3-yl]imidazo[5,1-f][1,2,4]triazin-4-yl}-1,2,3,4-tetrahydro-2,7-naphthyridine]	1.52	1.95
